Test results reported in the NIST ThermoML archive (doi:10.1016/j.jct.2013.04.022).

Legend:
[1] = mn = molality of the nth substance listed, in mol/kg; conditions: 298.15 K, 85.9 kPa, Liquid; for mass density: Vibrating tube method; for viscosity: Capillary tube (Ostwald / Ubbelohde) method
[2] = refractive index (Na D-line) (dimensionless); conditions: 298.15 K; 85.9 kPa; Liquid; Standard Abbe refractometry
[3] = 298.15 K, 85.9 kPa, Liquid; for viscosity: Capillary tube (Ostwald / Ubbelohde) method; for mass density: Vibrating tube method

CCCCn1cc[n+](C)c1.[Br-] [1-butyl-3-methylimidazolium bromide] + CC(=O)N(C)C
[1]
Conditions | mass density [kg/m3]
m1 = 0.0527 | 944.36
m1 = 0.1475 | 946.97
m1 = 0.1994 | 950.03

CCCCn1cc[n+](C)c1.[Br-] [1-butyl-3-methylimidazolium bromide] + C[S+](C)[O-]
[1]
Conditions | mass density [kg/m3]
m1 = 0.0751 | 1099.03
m1 = 0.0981 | 1099.68
m1 = 0.1923 | 1103.73

Oc1ccccc1C=Nc1ccccc1N=Cc1ccccc1O [2,2'-[1,2-phenylenebis(nitrilomethylidyne)]bis-phenol] + CC(=O)N(C)C
[1]
Conditions | mass density [kg/m3] | viscosity [mPa·s]
m1 = 0.0106 | 937.33 | 0.954
m1 = 0.0323 | 938.87 | 0.975
m1 = 0.0497 | 940.11 | 0.992
m1 = 0.0704 | 941.6 | 1.012
m1 = 0.0899 | 942.99 | 1.031
m1 = 0.1092 | 944.36 | 1.049
m1 = 0.129 | 945.78 | 1.069
m1 = 0.1492 | 947.22 | 1.087
m1 = 0.174 | 949.06 | –
m1 = 0.1742 | – | 1.011

Oc1ccccc1C=Nc1ccccc1N=Cc1ccccc1O [2,2'-[1,2-phenylenebis(nitrilomethylidyne)]bis-phenol] + C[S+](C)[O-]
[1]
Conditions | mass density [kg/m3] | viscosity [mPa·s]
m1 = 0.0099 | 1095.61 | 1.998
m1 = 0.0307 | 1096.3 | 2.041
m1 = 0.0493 | 1096.92 | 2.073
m1 = 0.07 | 1097.62 | 2.109
m1 = 0.0911 | 1098.35 | 2.151
m1 = 0.1086 | 1098.95 | 2.208
m1 = 0.1311 | 1099.71 | 2.229
m1 = 0.1483 | 1100.31 | 2.289
m1 = 0.1717 | 1101.2 | 2.333

CC(=O)N(C)C [N,N-dimethylethanamide]
Conditions | mass density [kg/m3] | refractive index | viscosity [mPa·s]
[2] | – | 1.436 | –
[3] | 936.57 | – | 0.961

C[S+](C)[O-] [dimethyl sulfoxide]
Conditions | mass density [kg/m3] | refractive index | viscosity [mPa·s]
[2] | – | 1.4762 | –
[3] | 1095.29 | – | 1.867
